Data set [1] relates to HeLa. Nature of the data set: Cytotoxicity against human HeLa cells at 100 ug/ml after 24 hrs by neutral red uptake assay relative to control. It is filed as functional.
Data set [2] can be described thus: Toxicity in human erythrocytes assessed as hemolysis at 100 ug/ml. It is filed as cell-based, Erythrocyte. Particulars: read-out: Activity.
The test system of data set [3] is Escherichia coli. The data set is described as follows: Antibacterial activity against Escherichia coli K12 ATCC 23716 in 10% Luria-Bertani medium/90% Hepes buffer at pH 7.0. Format: functional.
Data set [4] relates to HeLa. The data set is described as follows: Cytotoxicity against human HeLa cells at 100 ug/ml after 24 hrs by MTT assay relative to control. It is filed as functional. On the technique in general: Tetrazolium assays rely on reduction of a dye to a coloured formazan, in cell work by metabolically active cells.
The subject of the next data set is Pseudomonas aeruginosa. The data set is described as follows: Antibacterial activity against Pseudomonas aeruginosa CUN 4158-02 after 24 hrs in Mueller-Hinton broth medium. Format: functional.
Data set [5] concerns Brucella abortus. The data set is described as follows: Antibacterial activity against Brucella abortus 9.19 (per-) after 24 hrs in Mueller-Hinton broth medium. Format: functional.
The next data set concerns Acinetobacter baumannii. The data set is described as follows: Antibacterial activity against Acinetobacter baumannii ATCC 19606 after 24 hrs in Mueller-Hinton broth medium. It is filed as functional. Conditions: ATCC 19606, 24 h.
Data set [6] relates to Bordetella bronchiseptica. Nature of the data set: Antibacterial activity against Bordetella bronchiseptica CUN 11844-99 after 24 hrs in Mueller-Hinton broth medium. It is filed as functional.
In data set [7] the test system is Escherichia coli. The data set is described as follows: Antibacterial activity against Escherichia coli K12 ATCC 23716 after 24 hrs in Mueller-Hinton broth medium. Conditions: K12, 24 h. It is filed as functional.
Data set [8] deals with Brucella abortus. The data set is described as follows: Antibacterial activity against Brucella abortus 9.49 (per-) after 48 hrs in Mueller-Hinton broth medium. Format: functional.
In a further data set the test system is Staphylococcus aureus. Nature of the data set: Antibacterial activity against methicillin-resistant Staphylococcus aureus ATCC 43300 after 24 hrs in Mueller-Hinton broth medium. It is filed as functional. Particulars: ATCC 43300, 24 h.
The subject of data set [9] is Escherichia coli. The data set is described as follows: Antibacterial activity against Escherichia coli ATCC 25922 after 24 hrs in Mueller-Hinton broth medium. Format: functional. Particulars: ATCC 25922, 24 h.

A word on the MBC: it is the lowest tested concentration that kills the bacteria rather than only halting them. High values mean weaker bactericidal potency, low ones greater bactericidal potency. For orientation: MIC means the lowest concentration found to suppress growth.

≈ marks a conversion by molar mass, not a printed value. Where a SMILES comes first, the peptide text is derived from it.

Regarding `CC[C@H](C)[C@H](NC(=O)[C@H](CCCNC(=N)N)NC(=O)[C@H](CCCNC(=N)N)NC(=O)[C@H](CC(C)C)NC(=O)[C@H](Cc1ccccc1)NC(=O)[C@@H](NC(=O)[C@H](CCCNC(=N)N)NC(=O)[C@H](CCSC)NC(=O)[C@@H](NC(=O)[C@H](CCCCN)NC(=O)[C@H](CCCCN)NC(=O)[C@H](CO)NC(=O)[C@@H](NC(=O)CNC(=O)[C@H](CCCNC(=N)N)NC(=O)[C@H](CC(C)C)NC(=O)[C@@H](NC(=O)[C@@H](N)CCCCN)[C@@H](C)CC)C(C)C)[C@@H](C)CC)[C@@H](C)O)C(=O)N[C@@H](CO)C(=O)N[C@@H](CCCCN)C(=O)N[C@@H](CC(=O)O)C(=O)N[C@H](C(=O)N[C@@H](CC(C)C)C(=O)N[C@H](C(=O)NCC(=O)N[C@@H](CCCCN)C(=O)N[C@@H](CCCCN)C(=O)O)[C@@H](C)O)[C@@H](C)CC` (H-KILRGVSKKIMRTFLRRISKDILTGKK-OH), the results for the Activity in the data set on HeLa [1] and in the data set on HeLa [4] were 6.9% and 6.5%, respectively. For the same compound, in data set [2], the hemolysis at 100 ug/ml was less than 5%. In addition, in the data set with Escherichia coli [3], the MBC was determined as 8 µg/mL (≈ 2.51 µM). The compound further displayed a minimal inhibitory concentration (MIC) in the data set on Escherichia coli [3] of 8 µg/mL (≈ 2.51 µM).

For the compound `CC[C@H](C)[C@H](NC(=O)[C@H](CCCCN)NC(=O)[C@H](CCCCN)NC(=O)[C@H](CO)NC(=O)[C@@H](NC(=O)[C@@H](N)CCCCN)[C@@H](C)CC)C(=O)N[C@@H](CCSC)C(=O)N[C@@H](CCCNC(=N)N)C(=O)N[C@H](C(=O)N[C@@H](Cc1ccccc1)C(=O)N[C@@H](CC(C)C)C(=O)N[C@@H](CCCNC(=N)N)C(=O)N[C@@H](CCCNC(=N)N)C(N)=O)[C@@H](C)O` (H-KISKKIMRTFLRR-NH2), the MBC is 256 µg/mL (≈ 153 µM) against Pseudomonas aeruginosa; greater than 256 µg/mL with Brucella abortus [5]; 256 µg/mL (≈ 153 µM) in the data set with Acinetobacter baumannii; 32 µg/mL (≈ 19.1 µM) in [6]; 12.5 µg/mL (≈ 7.46 µM) in the data set on Escherichia coli [3]; 16 µg/mL (≈ 9.55 µM) against Escherichia coli [7]. For the same compound, the MBC against Staphylococcus aureus was greater than 256 µg/mL; against Escherichia coli [9], 128 µg/mL (≈ 76.4 µM). In addition, the MIC against Pseudomonas aeruginosa was 256 µg/mL (≈ 153 µM); in the data set on Acinetobacter baumannii, 256 µg/mL (≈ 153 µM); in [6], 16 µg/mL (≈ 9.55 µM); against Escherichia coli [3], 12.5 µg/mL (≈ 7.46 µM); in the data set on Escherichia coli [7] it was 16 µg/mL (≈ 9.55 µM); in the data set on Brucella abortus [8], 16 µg/mL (≈ 9.55 µM). For the same compound, the MIC is greater than 256 µg/mL with Staphylococcus aureus and 64 µg/mL (≈ 38.2 µM) in the data set with Escherichia coli [9]. Also, the results for the Activity in the data set on HeLa [1] and in the data set on HeLa [4] were 18.5% and 6.4%, respectively. Also, the hemolysis at 100 ug/ml in data set [2] was less than 5%.

Regarding `CC[C@H](C)[C@H](NC(=O)[C@H](CCCNC(=N)N)NC(=O)[C@H](CCCNC(=N)N)NC(=O)[C@H](CO)NC(=O)[C@@H](NC(=O)CNC(=O)[C@H](CCCNC(=N)N)NC(=O)[C@H](CC(C)C)NC(=O)[C@@H](NC(=O)[C@@H](N)CCCNC(=N)N)[C@@H](C)CC)C(C)C)C(=O)N[C@@H](CCSC)C(=O)N[C@@H](CCCNC(=N)N)C(=O)N[C@@H](CCCNC(=N)N)C(=O)N[C@H](C(=O)N[C@@H](CC(C)C)C(=O)N[C@H](C(=O)NCC(=O)N[C@@H](CCCNC(=N)N)C(=O)N[C@@H](CCCNC(=N)N)C(N)=O)[C@@H](C)O)[C@@H](C)CC` [RILRGVSRRIM RR ILTGRR] (H-RILRGVSRRIMRRILTGRR-NH2), the MBC turned out to be 128 µg/mL (≈ 54.1 µM) against Pseudomonas aeruginosa; 32 µg/mL (≈ 13.5 µM) against Brucella abortus [5]; 8 µg/mL (≈ 3.38 µM) in the data set on Acinetobacter baumannii; 4 µg/mL (≈ 1.69 µM) in data set [6]; 16 µg/mL (≈ 6.77 µM) against Escherichia coli [3]; 16 µg/mL (≈ 6.77 µM) against Escherichia coli [7]. Further, the results for the MBC against Staphylococcus aureus and against Escherichia coli [9] were 32 µg/mL (≈ 13.5 µM) and 16 µg/mL (≈ 6.77 µM), respectively. For the same compound, the MIC was found to be 32 µg/mL (≈ 13.5 µM) in the data set on Pseudomonas aeruginosa; 8 µg/mL (≈ 3.38 µM) against Acinetobacter baumannii; 4 µg/mL (≈ 1.69 µM) in [6]; 16 µg/mL (≈ 6.77 µM) in the data set on Escherichia coli [3]; 16 µg/mL (≈ 6.77 µM) against Escherichia coli [7]; 8 µg/mL (≈ 3.38 µM) with Brucella abortus [8]. Also, the MIC with Staphylococcus aureus turned out to be 32 µg/mL (≈ 13.5 µM); in the data set on Escherichia coli [9], 16 µg/mL (≈ 6.77 µM). In addition, the results for the Activity in the data set on HeLa [1] and in the data set with HeLa [4] were 13.5% and 6.6%, respectively.

The record behind these values is ChEMBL document CHEMBL1156451 (J Biol Chem, 2007).
